Test results from US8530493B2, “Indolopyridines as Eg5 kinesin modulators” (4SC AG, priority 2006, dated 2013).

System: RKO p21 uninduced (proliferating) colon adenocarcinoma cells
Experiment: Alamar Blue cell viability assay, RKO p21 uninduced (proliferating)
Type: cell-based
Details: Homo sapiens, Table B3, anti-proliferative/cytotoxic activity, 72 hours, read-out: −log EC50 RKO p21 uninduced (proliferating) (converted)
Procedure, shortened: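 RKO p21 or p27 subclones grown without Ponasterone A, i.e. proliferating, exposed 24 h after seeding to semi-log compound dilutions in DMEM/10% FCS (1% DMSO controls) for 72 h at 37° C. Alamar Blue fluorescence (544/590 nm) read relative to untreated cells; EC50 from dose-response curves, given as −log EC50 (mol/l).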

**Q.** `CC(C)CNCCN1C(=O)N2[C@H](c3cccc(O)c3)c3[nH]c4cc(F)c(Cl)cc4c3C[C@@]2(C)C1=O` (racemic) [Example 340, (3aSR,10RS)-6-Chloro-7-fluoro-10-(3-hydroxy-phenyl)-2-(2-isobutylamino-ethyl)-3a-methyl-3a,4,9,10-tetrahydro-2,9,10a-triaza-cyclopenta[b]fluorene-1,3-dione] was tested. Which EC50 did it give?
**A.** The EC50 was 39.8 to 251 nM.

**Q.** How did the EC50 turn out when `C[C@@]12Cc3c([nH]c4cc(F)c(Cl)cc34)[C@@H](c3cccc(O)c3)N1C(=O)N(CCNCC1CC1)C2=O` (racemic) [Example 341, (3aSR,10RS)-6-Chloro-2-[2-(cyclopropylmethyl-amino)-ethyl]-7-fluoro-10-(3-hydroxy-phenyl)-3a-methyl-3a,4,9,10-tetrahydro-2,9,10a-triaza-cyclopenta[b]fluorene-1,3-dione] was run?
**A.** Its EC50 is no more than 39.8 nM.

**Q.** For `C[C@@]12Cc3c([nH]c4cc(F)c(Cl)cc34)[C@@H](c3cccc(O)c3)N1C(=O)N(CCNCCO)C2=O` (racemic) [Example 342, (3aSR,10RS)-6-Chloro-7-fluoro-2-[2-(2-hydroxy-ethylamino)-ethyl]-10-(3-hydroxy-phenyl)-3a-methyl-3a,4,9,10-tetrahydro-2,9,10a-triaza-cyclopenta[b]fluorene-1,3-dione], which EC50 is on record?
**A.** Its EC50 is no more than 39.8 nM.

**Q.** `COCCNCCN1C(=O)N2[C@H](c3cccc(O)c3)c3[nH]c4cc(F)c(Cl)cc4c3C[C@@]2(C)C1=O` (racemic) [Example 343, (3aSR,10RS)-6-Chloro-7-fluoro-10-(3-hydroxy-phenyl)-2-[2-(2-methoxy-ethylamino)-ethyl]-3a-methyl-3a,4,9,10-tetrahydro-2,9,10a-triaza-cyclopenta[b]fluorene-1,3-dione] was tested. Which EC50 did it give?
**A.** Its EC50 is no more than 39.8 nM.

**Q.** For `C[C@@]12Cc3c([nH]c4cc(F)c(Cl)cc34)[C@@H](c3cccc(O)c3)N1C(=O)N(CCNC1CCC1)C2=O` (racemic) [Example 344, (3aSR,10RS)-6-Chloro-2-(2-cyclobutylamino-ethyl)-7-fluoro-10-(3-hydroxy-phenyl)-3a-methyl-3a,4,9,10-tetrahydro-2,9,10a-triaza-cyclopenta[b]fluorene-1,3-dione], which EC50 is on record?
**A.** The EC50 was no more than 39.8 nM.

**Q.** How did the EC50 turn out when `CC(C)(C)NCCN1C(=O)N2[C@H](c3cccc(O)c3)c3[nH]c4cc(F)c(Cl)cc4c3C[C@@]2(C)C1=O` (racemic) [Example 345, (3aSR,10RS)-2-(2-tert-Butylamino-ethyl)-6-chloro-7-fluoro-10-(3-hydroxy-phenyl)-3a-methyl-3a,4,9,10-tetrahydro-2,9,10a-triaza-cyclopenta[b]fluorene-1,3-dione] was run?
**A.** The EC50 was no more than 39.8 nM.

**Q.** For `C=CCNCCN1C(=O)N2[C@H](c3cccc(O)c3)c3[nH]c4cc(F)c(Cl)cc4c3C[C@@]2(C)C1=O` (racemic) [Example 346, (3aSR,10RS)-2-(2-Allylamino-ethyl)-6-chloro-7-fluoro-10-(3-hydroxy-phenyl)-3a-methyl-3a,4,9,10-tetrahydro-2,9,10a-triaza-cyclopenta[b]fluorene-1,3-dione], which EC50 is on record?
**A.** The EC50 was no more than 39.8 nM.

**Q.** How did the EC50 turn out when `CCN(C)CCN1C(=O)N2[C@H](c3cccc(O)c3)c3[nH]c4cc(F)c(Cl)cc4c3C[C@@]2(C)C1=O` (racemic) [Example 347, (3aSR,10RS)-6-Chloro-2-[2-(ethyl-methyl-amino)-ethyl]-7-fluoro-10-(3-hydroxy-phenyl)-3a-methyl-3a,4,9,10-tetrahydro-2,9,10a-triaza-cyclopenta[b]fluorene-1,3-dione] was run?
**A.** The EC50 was no more than 39.8 nM.

**Q.** How did the EC50 turn out when `CN(CCO)CCN1C(=O)N2[C@H](c3cccc(O)c3)c3[nH]c4cc(F)c(Cl)cc4c3C[C@@]2(C)C1=O` (racemic) [Example 348, (3aSR,10RS)-6-Chloro-7-fluoro-2-{2-[(2-hydroxy-ethyl)-methyl-amino]-ethyl}-10-(3-hydroxy-phenyl)-3a-methyl-3a,4,9,10-tetrahydro-2,9,10a-triaza-cyclopenta[b]fluorene-1,3-dione] was run?
**A.** The EC50 was 39.8 to 251 nM.
